Here are results for 23 compounds from US20230312587A1, “PTERIDINONE COMPOUNDS AND USES THEREOF” (Vertex Pharmaceutical Incorporated, priority 2018, published 2023).

The assay deals with β-catenin-TCF-mediated reporter transcription activity in Colo 205 cells. Description: Colo 205 reporter assay (TCF/LEF luciferase). In kind it is cell-based. Particulars: Colo 205 TCF/LEF luciferase reporter, read-out: TCF reporter Colo205 IC50. An outline of the steps:
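Luciferase signal from a TCF/LEF-driven reporter, stably integrated in Colo 205 colon cancer cells, was measured 5 h after compound addition.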

Setting [1] is: Homo sapiens, COLO 205, 5 h, five hours after addition of compound.
Where [2] appears, read: Homo sapiens, COLO 205, 5 h, R-isomer at C2 (corresponding to C2 S-isomer), 5 h.

Each structure is given as a SMILES string. pIC50: −log10 of the molar value. Read-outs that look alike come from different tables or passages of the source.

For `CNc1ccc(Cn2cc(CNc3nc(C)c4c(n3)N(C)[C@@H](C)C(=O)N4)cn2)cn1` [Compound 10, (7S)-4,7,8-trimethyl-2-(((1-((6-(methylamino)pyridin-3-yl)methyl)-1H-pyrazol-4-yl)methyl)amino)-7,8-dihydropteridin-6(5H)-one], under setting [1], the pIC50 was at most 5.30.
Still for that read-out and setting: to `Cc1nc(N[C@H]2C[C@H](NC(=O)Nc3ccc(F)c(F)c3F)C2)nc2c1NC(=O)[C@H](C)N2C` [Compound 461, 1-(2,3,4-trifluorophenyl)-3-(trans-3-(((S)-4,7,8-trimethyl-6-oxo-5,6,7,8-tetrahydropteridin-2-yl)amino)cyclobutyl)urea] belongs 5.30 to 6.00; to `Cc1nc(NCc2cnn(CC3CCC(F)(F)CC3)c2)nc2c1NC(=O)[C@H](C)N2C` [Compound 58, (7S)-2-(((1-((4,4-difluorocyclohexyl)methyl)-1H-pyrazol-4-yl)methyl)amino)-4,7,8-trimethyl-7,8-dihydropteridin-6(5H)-one], over 6.52; to `Cc1nc(N[C@H]2C[C@@H](NC(=O)N(C)C3CCC(F)(F)CC3)C2)nc2c1NC(=O)[C@H](C(C)C)N2C` [Compound 538, 1-(4,4-difluorocyclohexyl)-3-(cis-3-(((S)-7-isopropyl-4,8-dimethyl-6-oxo-5,6,7,8-tetrahydropteridin-2-yl)amino)cyclobutyl)-1-methylurea], 5.30 to 6.00.
Consider `Cc1nc(NCc2cnn(CC3CC4CCC3C4)c2)nc2c1NC(=O)[C@H](C)N2C` (stereo partly drawn) [Compound 134, (7S)-2-(((1-(bicyclo[2.2.1]heptan-2-ylmethyl)-1H-pyrazol-4-yl)methyl)amino)-4,7,8-trimethyl-7,8-dihydropteridin-6(5H)-one], for which the pIC50 under setting [1] is over 6.52.
For `C[C@H]1C(=O)Nc2cnc(NCc3cnn(CCc4ccc(F)c(F)c4)c3)nc2N1C` [Compound 111, (7S)-2-(((1-(3,4-difluorophenethyl)-1H-pyrazol-4-yl)methyl)amino)-7,8-dimethyl-7,8-dihydropteridin-6(5H)-one], under setting [1], the pIC50 was 6.00 to 6.52.
Take `Cc1nc(NCc2nc(-c3ccccc3)cs2)nc2c1NC(=O)[C@H](C)N2C` [Compound 59, (7S)-4,7,8-trimethyl-2-(((4-phenylthiazol-2-yl)methyl)amino)-7,8-dihydropteridin-6(5H)-one]: the pIC50 under setting [1] was at most 5.30.
`CC[C@H]1C(=O)Nc2cnc(NCc3cnn(Cc4ccc(C(F)(F)F)nc4)c3)nc2N1C(C)C` [Compound 497, (7S)-7-ethyl-8-isopropyl-2-(((1-((6-(trifluoromethyl)pyridin-3-yl)methyl)-1H-pyrazol-4-yl)methyl)amino)-7,8-dihydropteridin-6(5H)-one]: under setting [1], the pIC50 is 6.00 to 6.52.
As to `Cc1nc(NCc2cnn(CC3CC(F)(F)C3)c2)nc2c1NC(=O)[C@H](C(C)C)N2C` [Compound 727, (S)-2-(((1-((3,3-difluorocyclobutyl)methyl)-1H-pyrazol-4-yl)methyl)amino)-7-isopropyl-4,8-dimethyl-7,8-dihydropteridin-6(5H)-one], under setting [1], the pIC50 was over 6.52.
As for `Cc1nc(NCc2cnn(Cc3ccc(C(F)(F)F)nc3)c2)nc2c1NC(=O)[C@@H](CC(F)(F)F)N2C` [Compound I-1645], the pIC50 under setting [2] is 5.30 to 6.00.
Consider `COc1ccc(Cn2cc(CNc3nc(C)c4c(n3)N(C)[C@@H](C)C(=O)N4)cn2)cn1` [Compound 197, (7S)-2-(((1-((6-methoxypyridin-3-yl)methyl)-1H-pyrazol-4-yl)methyl)amino)-4,7,8-trimethyl-7,8-dihydropteridin-6(5H)-one], for which, under setting [1], the pIC50 is over 6.52.
Take `Cc1nc(N[C@@H]2CO[C@H](COc3cc(F)c(F)c(F)c3)C2)nc2c1NC(=O)[C@H](C)N2C` [Compound 308, (7S)-4,7,8-trimethyl-2-(((3S,5S)-5-((3,4,5-trifluorophenoxy)methyl)tetrahydrofuran-3-yl)amino)-7,8-dihydropteridin-6(5H)-one]: the pIC50 under setting [1] was 5.30 to 6.00.
Consider `COCC[C@@H]1C(=O)Nc2c(C)nc(NCc3cnn(Cc4cc(C(F)(F)F)nn4C)c3)nc2N1C` [Compound I-1648], for which the pIC50 under setting [2] is at most 5.30.
With `Cc1nc(N[C@H]2C[C@H](NC(=O)c3cc(F)c(F)c(F)c3)C2)nc2c1NC(=O)[C@H](C)N2C` [Compound 476, 3,4,5-trifluoro-N-(trans-3-(((S)-4,7,8-trimethyl-6-oxo-5,6,7,8-tetrahydropteridin-2-yl)amino)cyclobutyl)benzamide], the pIC50 under setting [1] was 5.30 to 6.00.
On the same count and under the same terms, then `COc1ccc(Cn2cc(CNc3nc(C)c4c(n3)N(C)[C@@H](C(C)C)C(=O)N4)cn2)cn1` [Compound 429, (7S)-7-isopropyl-2-(((1-((6-methoxypyridin-3-yl)methyl)-1H-pyrazol-4-yl)methyl)amino)-4,8-dimethyl-7,8-dihydropteridin-6(5H)-one], with over 6.52.
As for `CCC[C@@H]1C(=O)N(C)c2cnc(NCc3cnn(Cc4ccc(F)cc4)c3)nc2N1C` [Compound I-984], the pIC50 under setting [2] is 6.00 to 6.52.
On to `CO[C@H](C)[C@H]1C(=O)Nc2c(C)nc(N[C@H]3C[C@@H](Cc4nc(C(F)(F)F)no4)C3)nc2N1C` [Compound 664, (S)-7-((R)-1-methoxyethyl)-4,8-dimethyl-2-(((1s,3R)-3-((3-(trifluoromethyl)-1,2,4-oxadiazol-5-yl)methyl)cyclobutyl)amino)-7,8-dihydropteridin-6(5H)-one], for which, for the setting “five hours after addition of compound”, the pIC50 is 6.00 to 6.52.
In the case of `Cc1nc(NCc2cnn(Cc3ccc(N(C)C)nc3)c2)nc2c1NC(=O)[C@H](C)N2C` [Compound 196, (7S)-2-(((1-((6-(dimethylamino)pyridin-3-yl)methyl)-1H-pyrazol-4-yl)methyl)amino)-4,7,8-trimethyl-7,8-dihydropteridin-6(5H)-one], the pIC50 under setting [1] is 6.00 to 6.52.
Same read-out and setting: to `CC[C@H]1C(=O)Nc2c(C)nc(N[C@H]3C[C@@H](Cn4nccc4C(F)(F)F)C3)nc2N1C` [Compound 593, (S)-7-ethyl-4,8-dimethyl-2-((cis-3-((5-(trifluoromethyl)-1H-pyrazol-1-yl)methyl)cyclobutyl)amino)-7,8-dihydropteridin-6(5H)-one] belongs over 6.52.
Take `CCN1C(=O)[C@H](C)N(C)c2nc(N[C@H]3C[C@H](Oc4cc(F)c(F)c(F)c4)C3)nc(C)c21` [Compound 312, (7S)-5-ethyl-4,7,8-trimethyl-2-((trans-3-(3,4,5-trifluorophenoxy)-cyclobutyl)amino)-7,8-dihydropteridin-6(5H)-one]: the pIC50 under setting [1] was over 6.52.
Still for that read-out and setting: then `Cc1nc(NC2CN(C(=O)C34CC(C(F)(F)F)(C3)C4)C2)nc2c1NC(=O)[C@H](C(C)C)N2C` [Compound 699, (S)-7-isopropyl-4,8-dimethyl-2-((1-(3-(trifluoromethyl)bicyclo[1.1.1]pentane-1-carbonyl)azetidin-3-yl)amino)-7,8-dihydropteridin-6(5H)-one], with 5.30 to 6.00.
`Cc1nc(N[C@H]2C[C@H](NC(=O)Cc3cc(F)c(F)c(F)c3)C2)nc2c1NC(=O)[C@H](C(C)C)N2C` [Compound 515, N-(trans-3-(((S)-7-isopropyl-4,8-dimethyl-6-oxo-5,6,7,8-tetrahydropteridin-2-yl)amino)cyclobutyl)-2-(3,4,5-trifluorophenyl)acetamide]: the pIC50 under setting [1] was over 6.52.
The same measure, in the same setting: to `CC[C@H]1C(=O)Nc2c(C)nc(N[C@@H]3CC[C@H](Nc4cnc(C(F)(F)F)cn4)C3)nc2N1C` [Compound 738, (S)-7-ethyl-4,8-dimethyl-2-(((1R,3S)-3-((5-(trifluoromethyl)pyrazin-2-yl)amino)cyclopentyl)amino)-7,8-dihydropteridin-6(5H)-one] belongs 6.00 to 6.52.
